This is an account of results in patent US4775673A, “Substituted acylpiperazinoquinazolines and pharmaceutical compositions containing same” (priority 1983, dated 1988).

Counter-ions that a name gives are not always drawn.

For data set [1] the following is noted: prior art; cited from earlier work.
Data set [2] relates to hypertension. The settings on record: prior art; cited from earlier work.
Data set [3] relates to post-synaptic alpha1 -adrenergic receptors. The settings on record: prior art; cited from earlier work.
The test system of data set [4] is DOCA-hypertensive rats. The experiment in a line: blood pressure reduction in nonanesthetized (conscious) DOCA-hypertensive rats. Format: in vivo, rat. The procedure:
(§1) Of particular interest in this respect are the compounds of formula I above. The hydrochlorides of these compounds afford up to more than 15% aqueous solutions. […] In addition, the compounds of formula I are extremely non-toxic.
(§2) A typical, highly advantageous compound of the invention is the corresponding 2-methyloxypropionyl derivative of formula I, in which n is 0 and both R and R1 are methyl groups. In nonanesthesized (conscious) DOCA-hypertensive rats, this compound in an oral dose of 1 mg/kg elicits a blood pressure reduction of 20%. A dramatic reduction in blood pressure, as much as 40-50%, is observed in the same animals at a dose of 10 mg/kg p.o. Similarly, in non-anesthesized normotensive monkeys (Macaca mulatta), a dose of 3 mg/kg p.o. reduces the blood pressure by 20%. A dose of 25 mg/kg p.o. reduces blood pressure by 35 to 50% for a period of 7 to 9 hours. An intravenous administration of 2.5 mg/kg as a bolus to monkeys reduces blood pressure by 30 to 50% for 1 hour. A similar administration of 10 mg/kg i.v. elicits a blood pressure reduction of 50 to 70% for more then 7 hours. In rabbits anesthesized by pentobarbital, a dose of 25 mg/kg p.o. reduces blood pressure by 20 to 40% for a period of 4 to 5 hours. In non-anesthesized rabbits, a dose as low as 0.1 mg/kg i.v. elicits a transient but significant blood pressure reduction of almost 20%, shortly after administration. […]

The test system of data set [5] is normotensive monkeys (Macaca mulatta). The experiment in a line: blood pressure reduction in non-anesthetized normotensive monkeys. The settings on record: for duration of blood pressure reduction: monkeys. Format: in vivo. The method, then: as §1
A typical, highly advantageous compound of the invention is the corresponding 2-methyloxypropionyl derivative of formula I, in which n is 0 and both R and R1 are methyl groups. In nonanesthesized (conscious) DOCA-hypertensive rats, this compound in an oral dose of 1 mg/kg elicits a blood pressure reduction of 20%. A dramatic reduction in blood pressure, as much as 40-50%, is observed in the same animals at a dose of 10 mg/kg p.o. Similarly, in non-anesthesized normotensive monkeys (Macaca mulatta), a dose of 3 mg/kg p.o. reduces the blood pressure by 20%. A dose of 25 mg/kg p.o. reduces blood pressure by 35 to 50% for a period of 7 to 9 hours. An intravenous administration of 2.5 mg/kg as a bolus to monkeys reduces blood pressure by 30 to 50% for 1 hour. A similar administration of 10 mg/kg i.v. elicits a blood pressure reduction of 50 to 70% for more then 7 hours. In rabbits anesthesized by pentobarbital, a dose of 25 mg/kg p.o. reduces blood pressure by 20 to 40% for a period of 4 to 5 hours. In non-anesthesized rabbits, a dose as low as 0.1 mg/kg i.v. elicits a transient but significant blood pressure reduction of almost 20%, shortly after administration. A dose of 1 mg/kg i.v. reduces the blood pressure by 20 to 30% for a period of more than 8 hours.

The nature of data set [6]: acute toxicity assay in mice. Format: in vivo, mouse. The following applies: mouse, in vivo, iv, mice.
Text: as §1

Data set [7] has as its system mice. The experiment in a line: acute toxicity assay in mice. Format: in vivo, mouse. The settings on record: acute toxicity assays.
Text: as §1

Data set [8] can be described thus: acute toxicity assay in rats. The settings on record: rat, in vivo, iv.
Data set [9] concerns non-anesthesized rabbits. In words: blood pressure reduction in non-anesthetized rabbits. Format: in vivo, rabbit. The procedure:
as §1, §2

For `COc1cc2nc(N3CCN(C(=O)c4ccco4)CC3)nc(N)c2cc1OC` [Prazosin, 1-(4-amino-6,7-dimethyoxy2-quinazolinyl)-4-(2-furoyl) piperazine hydrochloride], in data set [1], the solubility in water entry is on record as “only slightly soluble in water”. The antihypertensive activity result in [2] is recorded as “highly efficient antihypertensive compound”. Also, in [3], the “blocking of post-synaptic alpha1-adrenergic receptors” value is “blocking the post-synaptic alpha1 -adrenergic receptors”.

For `COc1cc2nc(N3CCN(C(=O)C(C)OC)CC3)nc(N)c2cc1OC` (stereo not shown) [2-methoxypropionyl derivative, 1-(4-amino-6,7-dimethoxy-2-quinazolinyl)-4-(2-methoxyproprionyl)piperazine], the blood pressure reduction is 20% in [4] (1 mg/kg oral); 20% in data set [5] (3 mg/kg p.o., non-anesthetized monkeys); ~20% in data set [9] (0.1 mg/kg i.v., transient, shortly after administration). In addition, the “reduction in blood pressure” value in data set [4] (10 mg/kg p.o.) is listed as 40-50%. The “duration of blood pressure reduction” value in data set [5] (2.5 mg/kg i.v. bolus) is 1 h; in data set [5] (10 mg/kg i.v.), > 7 h; in data set [9] (1 mg/kg i.v.) it was “more than 8 hours”. Also, the LD50 came out at 360 mg/kg in data set [6] and 440 mg/kg in data set [8]. In [7], the toxicity entry is “extremely low in toxicity”.

The LD50 is the dose at which mortality reaches 50%.
